Test results taken from ChEMBL document CHEMBL4145553, “Design, synthesis, and biological evaluation of novel amide and hydrazide based thioether analogs targeting Histone deacteylase (HDAC) enzymes” (Eur J Med Chem, 2018).

Assays:
[1] = system: HL-60(TB); assay: Growth inhibition of human HL-60(TB) cells at 10 uM incubated for 48 hrs by sulforhodamine B assay relative to control; format: functional; conditions: HL-60, 48 h, values are per cent of control
[2] = system: HOP-92; assay: Growth inhibition of human HOP92 cells at 10 uM incubated for 48 hrs by sulforhodamine B assay relative to control; format: functional; conditions: HOP-92, 48 h, values are per cent of control
[3] = system: NCI-H322M; assay: Growth inhibition of human NCI-H322M cells at 10 uM incubated for 48 hrs by sulforhodamine B assay relative to control; format: functional; conditions: values are per cent of control
[4] = system: NCI-H460; assay: Growth inhibition of human NCI-H460 cells at 10 uM incubated for 48 hrs by sulforhodamine B assay relative to control; format: functional; conditions: NCI-H460, 48 h, values are per cent of control
[5] = system: TK-10; assay: Growth inhibition of human TK10 cells at 10 uM incubated for 48 hrs by sulforhodamine B assay relative to control; format: functional; conditions: TK-10, 48 h, values are per cent of control
[6] = system: SN12C; assay: Growth inhibition of human SN12C cells at 10 uM incubated for 48 hrs by sulforhodamine B assay relative to control; format: functional; conditions: values are per cent of control
[7] = system: CAKI-1; assay: Growth inhibition of human Caki1 cells at 10 uM incubated for 48 hrs by sulforhodamine B assay relative to control; format: functional; conditions: CAKI-1, 48 h, values are per cent of control
[8] = system: ACHN; assay: Growth inhibition of human ACHN cells at 10 uM incubated for 48 hrs by sulforhodamine B assay relative to control; format: functional; conditions: values are per cent of control
[9] = system: A498; assay: Growth inhibition of human A498 cells at 10 uM incubated for 48 hrs by sulforhodamine B assay relative to control; format: functional; conditions: A498, 48 h, values are per cent of control
[10] = system: SK-OV-3; assay: Growth inhibition of human SKOV3 cells at 10 uM incubated for 48 hrs by sulforhodamine B assay relative to control; format: functional; conditions: SK-OV-3, 48 h, values are per cent of control
[11] = system: NCI/ADR-RES; assay: Growth inhibition of human NCI/ADR-RES cells at 10 uM incubated for 48 hrs by sulforhodamine B assay relative to control; format: functional; conditions: values are per cent of control
[12] = system: UO-31; assay: Growth inhibition of human UO31 cells at 10 uM incubated for 48 hrs by sulforhodamine B assay relative to control; format: functional; conditions: UO-31, 48 h, values are per cent of control
[13] = system: DU-145; assay: Growth inhibition of human DU145 cells at 10 uM incubated for 48 hrs by sulforhodamine B assay relative to control; format: functional; conditions: DU-145, 48 h, values are per cent of control
[14] = system: MCF7; assay: Growth inhibition of human MCF7 cells at 10 uM incubated for 48 hrs by sulforhodamine B assay relative to control; format: functional; conditions: MCF7, 48 h, values are per cent of control
[15] = system: MDA-MB-231; assay: Growth inhibition of human MDA-MB-231 cells at 10 uM incubated for 48 hrs by sulforhodamine B assay relative to control; format: functional; conditions: MDA-MB-231, 48 h, values are per cent of control
[16] = system: BT-549; assay: Growth inhibition of human BT549 cells at 10 uM incubated for 48 hrs by sulforhodamine B assay relative to control; format: functional; conditions: BT-549, 48 h, values are per cent of control
[17] = system: T47D; assay: Growth inhibition of human T47D cells at 10 uM incubated for 48 hrs by sulforhodamine B assay relative to control; format: functional; conditions: values are per cent of control
[18] = system: SR; assay: Growth of human SR cells at 10 uM incubated for 48 hrs by sulforhodamine B assay relative to control
[19] = system: EKVX; assay: Growth of human EKVX cells at 10 uM incubated for 48 hrs by sulforhodamine B assay relative to control
[20] = system: SNB-75; assay: Growth of human SNB75 cells at 10 uM incubated for 48 hrs by sulforhodamine B assay relative to control; conditions: SNB-75, 48 h
[21] = system: SNB-19; assay: Growth of human SNB19 cells at 10 uM incubated for 48 hrs by sulforhodamine B assay relative to control; conditions: SNB-19, 48 h
[22] = system: SF-539; assay: Growth of human SF539 cells at 10 uM incubated for 48 hrs by sulforhodamine B assay relative to control; conditions: SF-539, 48 h
[23] = system: SF-268; assay: Growth of human SF268 cells at 10 uM incubated for 48 hrs by sulforhodamine B assay relative to control; conditions: SF-268, 48 h
[24] = system: SW-620; assay: Growth of human SW620 cells at 10 uM incubated for 48 hrs by sulforhodamine B assay relative to control; conditions: SW-620, 48 h
[25] = system: HT-29; assay: Growth of human HT-29 cells at 10 uM incubated for 48 hrs by sulforhodamine B assay relative to control; conditions: HT-29, 48 h
[26] = system: HOP-62; assay: Growth of human HOP62 cells at 10 uM incubated for 48 hrs by sulforhodamine B assay relative to control; conditions: HOP-62, 48 h
[27] = system: OVCAR-3; assay: Growth of human OVCAR3 cells at 10 uM incubated for 48 hrs by sulforhodamine B assay relative to control; conditions: OVCAR-3, 48 h
[28] = system: HCT-116; assay: Growth of human HCT116 cells at 10 uM incubated for 48 hrs by sulforhodamine B assay relative to control; conditions: HCT-116, 48 h
[29] = system: UACC-257; assay: Growth of human UACC257 cells at 10 uM incubated for 48 hrs by sulforhodamine B assay relative to control; conditions: UACC-257, 48 h
[30] = system: LOX IMVI; assay: Growth of human LOXIMVI cells at 10 uM incubated for 48 hrs by sulforhodamine B assay relative to control
[31] = system: Malme-3M; assay: Growth of human MALME-3M cells at 10 uM incubated for 48 hrs by sulforhodamine B assay relative to control
[32] = system: NCI-H522; assay: Growth of human NCI-H522 cells at 10 uM incubated for 48 hrs by sulforhodamine B assay relative to control; conditions: NCI-H522, 48 h
[33] = system: RPMI-8226; assay: Growth of human RPMI8226 cells at 10 uM incubated for 48 hrs by sulforhodamine B assay relative to control; conditions: RPMI-8226, 48 h
[34] = system: SK-MEL-28; assay: Growth of human SK-MEL-28 cells at 10 uM incubated for 48 hrs by sulforhodamine B assay relative to control; conditions: SK-MEL-28, 48 h

## CCS/C(Nc1ccccc1)=C(\C#N)C(=O)Nc1ccc(C)cc1
[1]
  growth, % of control at 10 µM: 45.9%
[2]
  growth, % of control at 10 µM: 62.3%
[3]
  growth, % of control at 10 µM: 96.6%
[4]
  growth, % of control at 10 µM: 98.8%
[5]
  growth, % of control at 10 µM: 81.7%
[6]
  growth, % of control at 10 µM: 94.3%
[7]
  growth, % of control at 10 µM: 86.8%
[8]
  growth, % of control at 10 µM: 96.8%
[9]
  growth, % of control at 10 µM: 79.4%
[10]
  growth, % of control at 10 µM: 101%
[11]
  growth, % of control at 10 µM: 98.4%
[12]
  growth, % of control at 10 µM: 75.3%
[13]
  growth, % of control at 10 µM: 95.2%
[14]
  growth, % of control at 10 µM: 92.3%
[15]
  growth, % of control at 10 µM: 98.9%
[16]
  growth, % of control at 10 µM: 103%
[17]
  growth, % of control at 10 µM: 72.1%
[18]
  growth, % of control at 10 µM: 64.2%
[19]
  growth, % of control at 10 µM: 97.4%
[20]
  growth, % of control at 10 µM: 109%
[21]
  growth, % of control at 10 µM: 93.3%
[22]
  growth, % of control at 10 µM: 98.2%
[23]
  growth, % of control at 10 µM: 86.8%
[24]
  growth, % of control at 10 µM: 101%
[25]
  growth, % of control at 10 µM: 89%
[26]
  growth, % of control at 10 µM: 103%
[27]
  growth, % of control at 10 µM: 97.9%
[28]
  growth, % of control at 10 µM: 90%
[29]
  growth, % of control at 10 µM: 99.3%
[30]
  growth, % of control at 10 µM: 98.8%
[31]
  growth, % of control at 10 µM: 101%
[32]
  growth, % of control at 10 µM: 71.2%
[33]
  growth, % of control at 10 µM: 86%
[34]
  growth, % of control at 10 µM: 109%

## CC(C)(C)S/C(Nc1ccccc1)=C(\C#N)C(=O)Nc1ccccc1
[1]
  growth, % of control at 10 µM: 82.3%
[2]
  growth, % of control at 10 µM: 91.4%
[3]
  growth, % of control at 10 µM: 101%
[4]
  growth, % of control at 10 µM: 103%
[5]
  growth, % of control at 10 µM: 90.9%
[6]
  growth, % of control at 10 µM: 98.4%
[7]
  growth, % of control at 10 µM: 95%
[8]
  growth, % of control at 10 µM: 103%
[9]
  growth, % of control at 10 µM: 92.9%
[10]
  growth, % of control at 10 µM: 105%
[11]
  growth, % of control at 10 µM: 100%
[12]
  growth, % of control at 10 µM: 86.1%
[13]
  growth, % of control at 10 µM: 107%
[14]
  growth, % of control at 10 µM: 100%
[15]
  growth, % of control at 10 µM: 98.5%
[16]
  growth, % of control at 10 µM: 99.4%
[17]
  growth, % of control at 10 µM: 85.2%
[18]
  growth, % of control at 10 µM: 82.3%
[19]
  growth, % of control at 10 µM: 101%
[20]
  growth, % of control at 10 µM: 96.5%
[21]
  growth, % of control at 10 µM: 92.5%
[22]
  growth, % of control at 10 µM: 100%
[23]
  growth, % of control at 10 µM: 86.3%
[24]
  growth, % of control at 10 µM: 103%
[25]
  growth, % of control at 10 µM: 94.6%
[26]
  growth, % of control at 10 µM: 90.6%
[27]
  growth, % of control at 10 µM: 108%
[28]
  growth, % of control at 10 µM: 95.2%
[29]
  growth, % of control at 10 µM: 92.9%
[30]
  growth, % of control at 10 µM: 98.8%
[31]
  growth, % of control at 10 µM: 97.3%
[32]
  growth, % of control at 10 µM: 80.3%
[33]
  growth, % of control at 10 µM: 95.3%
[34]
  growth, % of control at 10 µM: 105%
